Data: publication PMC6212834 (Nucleic Acids Research, 2018)

Molecular target: T1, Csx1 (SisCsx1, SiCsx1) (Saccharolobus islandicus, UniProt F0NE21)
T1 sequence (F0NE21 1-454): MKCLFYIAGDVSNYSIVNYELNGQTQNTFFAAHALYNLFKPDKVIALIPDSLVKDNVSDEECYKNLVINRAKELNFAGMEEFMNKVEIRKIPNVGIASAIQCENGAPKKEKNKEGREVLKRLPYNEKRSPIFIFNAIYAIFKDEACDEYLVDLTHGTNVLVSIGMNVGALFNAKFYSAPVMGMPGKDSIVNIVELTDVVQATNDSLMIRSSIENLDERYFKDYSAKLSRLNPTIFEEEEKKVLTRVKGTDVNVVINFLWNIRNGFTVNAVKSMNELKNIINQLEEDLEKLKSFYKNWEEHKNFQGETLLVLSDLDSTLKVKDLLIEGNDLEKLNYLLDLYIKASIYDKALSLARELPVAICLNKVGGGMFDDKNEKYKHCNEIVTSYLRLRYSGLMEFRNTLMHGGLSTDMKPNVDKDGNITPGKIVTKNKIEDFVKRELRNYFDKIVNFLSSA
Experiment: RNA
Assay type: biochemical

Nc1ncnc2c1ncn2[C@@H]1O[C@@H]2COP(=O)(O)O[C@H]3[C@@H](O)[C@H](n4cnc5c(N)ncnc54)O[C@@H]3COP(=O)(O)O[C@H]3[C@@H](O)[C@H](n4cnc5c(N)ncnc54)O[C@@H]3COP(=O)(O)O[C@H]3[C@@H](O)[C@H](n4cnc5c(N)ncnc54)O[C@@H]3COP(=O)(O)O[C@H]2[C@H]1O [c-A4]
EC50: 7.4 nM
